{"source": "ChEMBL document CHEMBL3872283", "about": "“Design, Synthesis, and Evaluation of Novel and Selective G-protein Coupled Receptor 120 (GPR120) Spirocyclic Agonists” (ACS Med Chem Lett, 2017)", "key": {"[1]": {"biological_target": "T1, Free fatty acid receptor 4 (Mus musculus, UniProt Q7TMA4)", "T1 sequence (Q7TMA4 whole entry)": "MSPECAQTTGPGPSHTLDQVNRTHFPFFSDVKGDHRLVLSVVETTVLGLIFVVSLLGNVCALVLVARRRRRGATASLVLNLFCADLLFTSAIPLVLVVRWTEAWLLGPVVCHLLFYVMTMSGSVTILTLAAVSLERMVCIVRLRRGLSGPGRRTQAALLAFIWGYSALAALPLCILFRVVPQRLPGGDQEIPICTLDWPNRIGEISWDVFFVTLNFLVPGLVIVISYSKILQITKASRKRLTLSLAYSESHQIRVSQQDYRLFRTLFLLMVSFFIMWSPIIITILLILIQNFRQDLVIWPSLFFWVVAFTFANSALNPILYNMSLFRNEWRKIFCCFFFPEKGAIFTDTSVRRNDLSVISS", "test": "Agonist activity at mouse GPR120 expressed in U2OS cells assessed as induction of beta-arrestin2 recruitment after 90 mins by luminescence assay", "assay_type": "cell-based"}, "[2]": {"biological_target": "Voltage-gated inwardly rectifying potassium channel KCNH2 (Homo sapiens, UniProt Q12809)", "sequence (Q12809 whole entry)": "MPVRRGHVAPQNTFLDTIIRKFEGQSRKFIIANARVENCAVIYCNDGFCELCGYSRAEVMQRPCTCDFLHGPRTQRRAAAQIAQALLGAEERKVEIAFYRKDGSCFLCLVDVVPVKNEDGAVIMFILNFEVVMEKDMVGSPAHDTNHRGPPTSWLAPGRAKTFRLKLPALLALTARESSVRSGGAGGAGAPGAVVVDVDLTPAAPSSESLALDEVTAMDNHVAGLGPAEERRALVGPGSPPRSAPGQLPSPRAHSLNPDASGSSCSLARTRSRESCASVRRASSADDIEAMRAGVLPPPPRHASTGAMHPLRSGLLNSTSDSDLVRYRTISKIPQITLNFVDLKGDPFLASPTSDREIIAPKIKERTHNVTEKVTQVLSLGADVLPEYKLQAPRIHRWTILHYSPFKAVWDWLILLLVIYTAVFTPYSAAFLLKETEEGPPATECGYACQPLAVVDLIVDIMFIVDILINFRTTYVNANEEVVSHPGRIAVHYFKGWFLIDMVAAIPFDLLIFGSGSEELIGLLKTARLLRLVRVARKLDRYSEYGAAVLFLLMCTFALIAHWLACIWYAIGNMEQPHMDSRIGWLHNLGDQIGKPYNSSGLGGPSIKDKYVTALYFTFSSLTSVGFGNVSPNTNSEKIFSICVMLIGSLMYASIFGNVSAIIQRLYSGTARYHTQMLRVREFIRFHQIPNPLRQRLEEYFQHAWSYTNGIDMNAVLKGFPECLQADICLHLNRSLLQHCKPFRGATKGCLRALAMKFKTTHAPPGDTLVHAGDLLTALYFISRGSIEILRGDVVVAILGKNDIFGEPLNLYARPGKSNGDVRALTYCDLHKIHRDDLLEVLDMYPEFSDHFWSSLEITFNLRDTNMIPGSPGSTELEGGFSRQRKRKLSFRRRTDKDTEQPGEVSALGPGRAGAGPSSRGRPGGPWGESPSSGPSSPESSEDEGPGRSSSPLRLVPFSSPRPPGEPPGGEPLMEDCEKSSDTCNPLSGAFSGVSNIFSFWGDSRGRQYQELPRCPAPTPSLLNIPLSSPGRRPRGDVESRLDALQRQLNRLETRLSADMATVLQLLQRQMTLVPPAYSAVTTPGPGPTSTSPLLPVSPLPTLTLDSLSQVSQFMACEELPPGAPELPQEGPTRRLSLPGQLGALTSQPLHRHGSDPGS", "test": "Displacement of [35S]-MK499 from human ERG expressed in HEK293 cell membranes"}, "[3]": {"biological_target": "Sodium channel protein type 5 subunit alpha (Homo sapiens, UniProt Q14524)", "sequence (Q14524 whole entry)": "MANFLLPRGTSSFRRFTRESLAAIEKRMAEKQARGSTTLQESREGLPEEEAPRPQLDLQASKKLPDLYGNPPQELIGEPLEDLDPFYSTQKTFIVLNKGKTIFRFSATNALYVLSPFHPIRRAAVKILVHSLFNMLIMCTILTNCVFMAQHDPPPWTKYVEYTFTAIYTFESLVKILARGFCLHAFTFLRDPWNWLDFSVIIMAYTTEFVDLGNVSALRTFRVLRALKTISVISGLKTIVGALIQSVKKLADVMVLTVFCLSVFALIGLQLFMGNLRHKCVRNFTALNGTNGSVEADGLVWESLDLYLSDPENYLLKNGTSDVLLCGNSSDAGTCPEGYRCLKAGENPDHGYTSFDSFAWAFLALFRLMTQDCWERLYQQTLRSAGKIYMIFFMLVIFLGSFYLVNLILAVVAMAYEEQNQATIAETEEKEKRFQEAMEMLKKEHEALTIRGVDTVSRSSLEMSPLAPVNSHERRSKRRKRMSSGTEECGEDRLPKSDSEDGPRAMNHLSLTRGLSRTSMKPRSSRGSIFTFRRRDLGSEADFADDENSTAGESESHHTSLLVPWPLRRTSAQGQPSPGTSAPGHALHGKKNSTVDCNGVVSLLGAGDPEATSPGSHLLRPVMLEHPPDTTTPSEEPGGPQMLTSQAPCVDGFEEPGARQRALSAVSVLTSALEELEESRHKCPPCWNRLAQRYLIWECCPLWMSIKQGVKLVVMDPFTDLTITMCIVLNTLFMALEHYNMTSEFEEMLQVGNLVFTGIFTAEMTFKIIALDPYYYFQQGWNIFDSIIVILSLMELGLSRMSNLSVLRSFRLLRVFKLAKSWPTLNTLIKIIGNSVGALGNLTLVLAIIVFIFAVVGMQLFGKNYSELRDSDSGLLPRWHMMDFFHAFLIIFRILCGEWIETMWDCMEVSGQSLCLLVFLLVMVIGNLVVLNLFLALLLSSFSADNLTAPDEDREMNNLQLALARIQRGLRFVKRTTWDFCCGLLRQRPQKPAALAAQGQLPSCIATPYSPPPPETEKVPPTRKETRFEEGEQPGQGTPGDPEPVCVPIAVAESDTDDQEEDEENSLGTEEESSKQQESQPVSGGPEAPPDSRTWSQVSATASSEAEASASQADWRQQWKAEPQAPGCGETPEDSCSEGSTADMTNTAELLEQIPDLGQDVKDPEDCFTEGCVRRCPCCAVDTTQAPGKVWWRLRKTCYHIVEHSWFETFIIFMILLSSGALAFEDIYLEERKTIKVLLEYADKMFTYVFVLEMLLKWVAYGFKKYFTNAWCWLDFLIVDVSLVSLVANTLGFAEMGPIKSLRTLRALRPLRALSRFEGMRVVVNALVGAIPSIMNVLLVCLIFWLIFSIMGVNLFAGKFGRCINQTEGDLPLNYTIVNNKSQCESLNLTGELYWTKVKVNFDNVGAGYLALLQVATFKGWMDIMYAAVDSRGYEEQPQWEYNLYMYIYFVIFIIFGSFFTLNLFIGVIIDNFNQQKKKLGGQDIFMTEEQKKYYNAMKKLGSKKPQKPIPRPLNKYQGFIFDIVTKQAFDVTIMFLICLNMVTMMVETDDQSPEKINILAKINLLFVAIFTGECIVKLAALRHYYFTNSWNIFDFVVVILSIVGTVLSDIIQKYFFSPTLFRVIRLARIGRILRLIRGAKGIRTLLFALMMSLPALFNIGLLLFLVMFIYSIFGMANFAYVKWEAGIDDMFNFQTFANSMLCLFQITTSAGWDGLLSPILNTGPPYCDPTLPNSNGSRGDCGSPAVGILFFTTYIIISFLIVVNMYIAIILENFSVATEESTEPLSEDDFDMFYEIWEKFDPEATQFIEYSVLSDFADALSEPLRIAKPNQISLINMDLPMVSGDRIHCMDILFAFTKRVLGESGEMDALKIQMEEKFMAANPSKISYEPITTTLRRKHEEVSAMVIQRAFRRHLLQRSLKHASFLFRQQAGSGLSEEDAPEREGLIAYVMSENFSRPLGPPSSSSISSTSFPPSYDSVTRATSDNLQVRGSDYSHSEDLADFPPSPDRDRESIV", "test": "Inhibition of Nav1.5 (unknown origin)"}, "Cytochrome P450 3A4": {"biological_target": "Cytochrome P450 3A4 (Homo sapiens, UniProt P08684)", "sequence (P08684 whole entry)": "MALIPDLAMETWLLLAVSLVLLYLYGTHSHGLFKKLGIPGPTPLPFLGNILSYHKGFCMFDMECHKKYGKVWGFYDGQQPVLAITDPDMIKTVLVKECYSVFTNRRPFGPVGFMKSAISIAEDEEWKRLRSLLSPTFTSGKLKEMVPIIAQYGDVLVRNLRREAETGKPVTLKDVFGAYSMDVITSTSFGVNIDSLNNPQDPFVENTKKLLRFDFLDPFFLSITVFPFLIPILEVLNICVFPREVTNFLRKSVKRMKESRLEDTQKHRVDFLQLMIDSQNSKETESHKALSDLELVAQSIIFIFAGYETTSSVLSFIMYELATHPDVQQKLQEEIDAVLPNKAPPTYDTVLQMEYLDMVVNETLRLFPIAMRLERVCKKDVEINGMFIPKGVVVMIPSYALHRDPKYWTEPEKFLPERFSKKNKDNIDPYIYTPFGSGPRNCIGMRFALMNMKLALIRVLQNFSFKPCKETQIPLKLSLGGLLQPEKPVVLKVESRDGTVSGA", "test": "Inhibition of human CYP3A4", "assay_type": "ADME"}, "[4]": {"biological_target": "T2, Peroxisome proliferator-activated receptor alpha (Homo sapiens) (UniProt Q07869)", "T2 sequence (whole entry)": "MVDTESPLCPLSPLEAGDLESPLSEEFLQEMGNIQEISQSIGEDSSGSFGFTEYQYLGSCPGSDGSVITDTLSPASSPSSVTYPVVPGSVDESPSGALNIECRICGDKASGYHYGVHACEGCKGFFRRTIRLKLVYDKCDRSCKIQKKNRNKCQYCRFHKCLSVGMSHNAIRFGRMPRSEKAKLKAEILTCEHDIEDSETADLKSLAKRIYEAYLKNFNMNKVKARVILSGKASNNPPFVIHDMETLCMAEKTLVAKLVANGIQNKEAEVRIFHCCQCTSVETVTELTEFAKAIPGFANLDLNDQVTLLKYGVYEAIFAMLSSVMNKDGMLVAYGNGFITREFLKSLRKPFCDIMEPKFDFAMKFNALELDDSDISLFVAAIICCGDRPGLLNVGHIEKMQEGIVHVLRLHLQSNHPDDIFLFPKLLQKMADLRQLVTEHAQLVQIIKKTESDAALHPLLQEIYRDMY", "test": "Binding affinity to human PPARalpha"}, "[5]": {"test": "Plasma clearance in rat at 1 mg/kg, iv or 2 mg/kg, po by LC/MS/MS analysis", "assay_type": "ADME, organism-based"}, "[6]": {"test": "Volume of distribution at steady state in rat at 1 mg/kg, iv or 2 mg/kg, po by LC/MS/MS analysis", "assay_type": "ADME, organism-based", "settings": "in vivo, read-out: Vdss"}, "[7]": {"test": "Protein binding in rat plasma at 1 mg/kg, iv or 2 mg/kg, po by LC/MS/MS analysis", "assay_type": "ADME, organism-based", "settings": "read-out: PPB (converted)"}, "[8]": {"test": "MRT in mouse at 2 mg/kg, iv or 10 mg/kg, po by LC/MS/MS analysis", "assay_type": "ADME, organism-based", "settings": "in vivo"}, "[9]": {"test": "Protein binding in mouse plasma at 2 mg/kg, iv or 10 mg/kg, po by LC/MS/MS analysis", "assay_type": "ADME, organism-based", "settings": "read-out: PPB (converted)"}, "[10]": {"test": "Volume of distribution at steady state in dog at 1 mg/kg, iv or 2 mg/kg, po by LC/MS/MS analysis", "assay_type": "ADME, organism-based, Canis lupus familiaris", "settings": "in vivo, read-out: Vdss"}, "[11]": {"test": "MRT in dog at 1 mg/kg, iv or 2 mg/kg, po by LC/MS/MS analysis", "assay_type": "ADME, organism-based, Canis lupus familiaris", "settings": "in vivo"}, "[12]": {"test": "Oral bioavailability in dog at 2 mg/kg by LC/MS/MS analysis", "assay_type": "ADME, organism-based, Canis lupus familiaris", "settings": "in vivo"}, "[13]": {"test": "AUC in rhesus monkey at 0.5 mg/kg, iv by LC/MS/MS analysis", "assay_type": "ADME, organism-based, Macaca mulatta", "settings": "in vivo"}, "[14]": {"test": "Plasma clearance in rhesus monkey at 0.5 mg/kg, iv or 1 mg/kg, po by LC/MS/MS analysis", "assay_type": "ADME, organism-based, Macaca mulatta"}, "[15]": {"test": "Volume of distribution at steady state in rhesus monkey at 0.5 mg/kg, iv or 1 mg/kg, po by LC/MS/MS analysis", "assay_type": "ADME, organism-based, Macaca mulatta", "settings": "in vivo, read-out: Vdss"}, "[16]": {"test": "MRT in rhesus monkey at 0.5 mg/kg, iv or 1 mg/kg, po by LC/MS/MS analysis", "assay_type": "ADME, organism-based, Macaca mulatta", "settings": "in vivo"}, "[17]": {"test": "Protein binding in rhesus monkey plasma at 0.5 mg/kg, iv or 1 mg/kg, po by LC/MS/MS analysis", "assay_type": "ADME, organism-based, Macaca mulatta", "settings": "read-out: PPB (converted)"}, "[18]": {"test": "Antidiabetic activity in C57BL/6 mouse administered 60 mins via oral gavage prior to dextrose challenge measured up to 120 mins post dextrose challenge by oGTT", "assay_type": "functional"}, "Mus musculus [19]": {"system": "Mus musculus", "test": "Antidiabetic activity in diet-induced obese mouse assessed as insulin sensitivity by measuring reduction in glucose at 30 mg/kg, po qd administered daily via gavage for 14 days measured on day 14 post dose", "assay_type": "functional, organism-based"}, "Mus musculus [20]": {"system": "Mus musculus", "test": "Decrease in insulin levels in diet-induced obese mouse at 30 mg/kg, po qd administered daily via gavage for 14 days measured on day 14 post dose", "assay_type": "functional, organism-based"}, "Mus musculus [21]": {"system": "Mus musculus", "test": "Antidiabetic activity in diet-induced obese mouse assessed as reduction in homeostatic model assessment of insulin resistance at 30 mg/kg, po qd administered daily via gavage for 14 days measured on day 14 post dose", "assay_type": "functional, organism-based"}, "Mus musculus [22]": {"system": "Mus musculus", "test": "Antidiabetic activity in diet-induced obese mouse assessed as increase in glucose infusion rate during hyperinsulinemic euglycemic clamp procedure at 30 mg/kg, po qd administered daily via gavage measured after 28 days", "assay_type": "functional, organism-based"}}, "note": "Calls of active or inactive are those of the source. The rule behind the calls is not given here."}
{"molecule": "O=C(O)CC1CCC2(CC1)CCN(c1cc(OC(F)(F)F)ccc1Cl)CC2", "values": [{"measurement": "EC50", "setting": "[1]", "value": 54, "unit": "nM"}, {"measurement": "INH", "setting": "[2]", "value": "> 60", "unit": "µM"}, {"measurement": "INH", "setting": "[3]", "value": 13, "unit": "µM"}, {"measurement": "INH", "setting": "Cytochrome P450 3A4", "value": "> 48", "unit": "µM"}, {"measurement": "Activity", "setting": "[4]", "value": "> 10", "unit": "µM"}, {"measurement": "clearance", "setting": "[5]", "value": 2.3, "unit": "mL/min/kg"}, {"measurement": "Vd", "setting": "[6]", "value": 0.4, "unit": "L/kg"}, {"measurement": "fraction unbound", "setting": "[7]", "value": 0.0013}, {"measurement": "MRT", "setting": "[8]", "value": 26.5, "unit": "h"}, {"measurement": "fraction unbound", "setting": "[9]", "value": 0.0021}, {"measurement": "Vd", "setting": "[10]", "value": 6.7, "unit": "L/kg"}, {"measurement": "MRT", "setting": "[11]", "value": 10.5, "unit": "h"}, {"measurement": "bioavailability", "setting": "[12]", "value": 100, "unit": "%"}, {"measurement": "AUC", "setting": "[13]", "value": 8.7, "unit": "µM·h"}, {"measurement": "clearance", "setting": "[14]", "value": 2.7, "unit": "mL/min/kg"}, {"measurement": "Vd", "setting": "[15]", "value": 1.7, "unit": "L/kg"}, {"measurement": "MRT", "setting": "[16]", "value": 10.1, "unit": "h"}, {"measurement": "fraction unbound", "setting": "[17]", "value": 0.0028}, {"measurement": "Activity", "setting": "[18]", "value": "Dose-dependent effect"}, {"measurement": "Activity", "setting": "Mus musculus [19]", "value": "Active"}, {"measurement": "Activity", "setting": "Mus musculus [20]", "value": "Active"}, {"measurement": "Activity", "setting": "Mus musculus [21]", "value": "Active"}, {"measurement": "Activity", "setting": "Mus musculus [22]", "value": "Active"}]}
